Laboratory results taken from ChEMBL document CHEMBL1127558, “Synthesis and characterization of selective fluorescent ligands for the neurokinin NK2 receptor” (J Med Chem, 1994).
Numbered stars: 1 amine (or outer) side, 2 acyl side, 3 side chain; on linkers, the order of the positions; unused ones are H or OH. Square brackets hold non-standard residues; d marks the D form. Peptide text beside a SMILES is read from it. * marks the point of attachment. X1 = C[C@@H](C(=O)[*:2])N(c1ccc([N+](=O)[O-])c2nonc12)[*:1]; Nle = CCCC[C@H](N)C(=O)O; Bz = O=C(c1ccccc1)*

Target: T1, Substance-K receptor (Homo sapiens, UniProt P21452)
T1 sequence (P21452 whole entry): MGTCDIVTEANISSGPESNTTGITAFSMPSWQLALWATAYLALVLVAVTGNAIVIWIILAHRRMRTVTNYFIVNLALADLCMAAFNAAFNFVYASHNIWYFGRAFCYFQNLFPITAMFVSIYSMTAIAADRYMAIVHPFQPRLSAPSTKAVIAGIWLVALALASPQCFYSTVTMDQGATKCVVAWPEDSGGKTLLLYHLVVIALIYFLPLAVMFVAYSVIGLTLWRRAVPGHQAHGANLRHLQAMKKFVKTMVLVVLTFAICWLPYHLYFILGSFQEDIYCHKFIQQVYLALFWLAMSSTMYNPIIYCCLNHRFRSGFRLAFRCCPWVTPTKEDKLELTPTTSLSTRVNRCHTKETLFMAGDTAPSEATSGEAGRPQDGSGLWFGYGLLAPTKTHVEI
Assay: Binding affinity against human NK2 receptors expressed in CHO cells using [3H]GR-100679 as radioligand
Assay type: cell-based

CCCC[C@H](NC(=O)[C@@H]1CCCN1C(=O)[C@H]1CCCN1C(=O)[C@H](Cc1ccccc1)NC(=O)[C@@H](Cc1c[nH]c2ccccc12)NC(=O)[C@H](C)NC(=O)[C@H](CCCCNC(=S)Nc1ccc2c(c1)C(=O)OC21c2ccc(O)cc2Oc2cc(O)ccc21)NC(=O)c1ccccc1)C(N)=O gave a Ki of 24.5 nM.
With CCCC[C@H](NC(=O)[C@@H]1CCCN1C(=O)[C@@H]1CCCN1C(=O)[C@H](Cc1ccccc1)NC(=O)[C@H](Cc1c[nH]c2ccccc12)NC(=O)[C@H](C)NC(=O)[C@H](C)Nc1ccc([N+](=O)[O-])c2nonc12)C(N)=O (H-[X1]AWFPP[Nle]-NH2) the Ki was 87.1 nM.
Work on CCCC[C@H](NC(=O)[C@@H]1CCCN1C(=O)[C@@H]1CCCN1C(=O)[C@H](Cc1ccccc1)NC(=O)[C@H](Cc1c[nH]c2ccccc12)NC(=O)[C@H](C)NC(=O)[C@H](C)NC(=O)c1ccccc1)C(N)=O (Bz-AAWFPP[Nle]-NH2) yielded a Ki of 0.155 nM.
In the case of CCCC[C@H](NC(=O)[C@@H]1CCCN1C(=O)[C@H]1CCCN1C(=O)[C@H](Cc1ccccc1)NC(=O)[C@@H](Cc1c[nH]c2ccccc12)NC(=O)[C@H](C)NC(=O)[C@H](C)/N=C(/S)Nc1ccc2c(c1)C(=O)OC21c2ccc(O)cc2Oc2cc(O)ccc21)C(N)=O, the “Log Ki” value (cho) is reported as -5.99.
